Assays:
HTT protein = HTT protein electrochemiluminescence (ECL) assay in HD patient fibroblasts, 96 h; assay type: cell-based, human; conditions: fibroblasts derived from HD patients, 96 h
Description: Human fibroblasts derived from a homozygous patient with HD (GM4857) were cultured for 96 hours in the presence of test compounds (in 0.5% DMSO) or controls at 37° C. in a humidified 5% CO2 atmosphere. After 96 hours, cells were lysed and frozen. HTT protein levels were measured in lysates as described below. Compounds that decreased HTT protein levels relative to DMSO control were further tested in a dose response assay.
For analysis in the electrochemiluminescence (ECL) assays, test compounds were serially diluted 3-fold in 100% DMSO (Sigma) to generate a 7-point concentration curve. A solution of test compound (500 nL, 200× in DMSO) was added to each test well with Acoustic Transfer System (EDC Biosystems); final concentration of DMSO was 0.5%. Fibroblasts were seeded in 96-well flat-bottomed plates (Thermo Fisher) at 4×10^3 cells/well in 100 μl of culture medium containing the test compound or DMSO vehicle control and incubated for 96 hours (37° C., 5% CO2, 100% relative humidity). After removal of the supernatant, cells were lysed in 50 μL of 1×LB11 extraction buffer (50 mM Tris (pH 7.4), 300 mM NaCl, 10% [w/v] glycerol, 3 mM EDTA, 1 mM MgCl2, 20 mM glycerophosphate, 25 mM NaF, 1% Triton X-100), containing a Complete™ protease inhibitor cocktail (Roche Diagnostics) with shaking at 4° C. for 30 minutes; the plates were then stored at −20° C.
Meso Scale Discovery® 96-well plates (MSD®) were coated overnight at 4° C. with primary antibodies in phosphate-buffered saline (PBS; 30 μl/well). The plates were washed three times with 0.05% Tween-20 in 1×PBS (PBS-T; 200 μl/well) then blocked (100 μl/well; 5% bovine serum albumin [BSA] in PBS-T) for 5-6 hours at room temperature (RT) with shaking. Plates were then washed three times with PBS-T. Cell lysates were transferred to the antibody coated plates (25 μl/well) and incubated with shaking overnight at 4° C. After removal of the lysates, the plates were washed three times with PBS-T, and 25 μl of detection antibody in 1% BSA, PBS-T was added to each well and incubated with shaking for 1 hour at room temperature. After three washes with PBS-T, 25 μl of Sulfo-Tag secondary antibody (MSD®; 0.25 μg/ml in 1% BSA, PBS-T) was added to each well and incubated with shaking for 1 hour at RT. After washing three times with PBS-T, 150 μl of read buffer T with surfactant (MSD®) was added to each empty well and the plate was imaged on the SI 6000 imager (MSD®) according to manufacturers' instructions for 96-well plates. Primary capture antibodies included: anti-polyglutamine-expanded HTT mouse monoclonal antibody (mAb) clone MW1 (1 μg/mL; Developmental Studies Hybridoma Bank); anti-HTT MAB2166 mAb (1 μg/mL; Millipore); anti-human KRAS rabbit polyclonal antibody (1 μg/mL; Thermo Fisher Scientific). Detection antibodies included: Huntingtin (D7F7) XP® Rabbit mAb (0.25 μg/ml; Cell Signalling Technology®); anti-hKRAS mouse mAb (0.25 μg/ml; LSBIO).

MDR1 = biological target: T1, MDR1 (Homo sapiens, UniProt P08183); assay: MDCK-MDR1 efflux assay; assay type: in vitro ADME; conditions: 10 μM, MDCK-MDR1 and MDCK-WT monolayers, 1 hour
T1 construct: host or cells: MDCK (Madin-Darby Canine Kidney) cells expressing MDR1
Description: The MDR1 efflux assay was conducted at Absorption System LLC (Exton, Pa.). Briefly, MDCK-MDR1 and MDCK-WT cell monolayers were grown to confluence on collagen-coated, microporous membranes in 12-well assay plates (Thermofisher). Compound solutions (10 μM) in permeability assay buffer (Hanks' balanced salt solution (HBSS), 10 mM HEPES, 15 mM glucose; pH of 7.4) were placed in the donor chamber. The receiver chamber was filled with assay buffer plus 1% BSA. Cell monolayers were dosed on the apical side (A-to-B) or basolateral side (B-to-A) and incubated at 37° C. (5% CO2, 100% relative humidity). Sampling from the donor chambers was performed at 0 and 1 hour; and from the receiver chambers at 1 hour. Each determination was performed in duplicate. The flux of lucifer yellow was also measured post-experimentally for each monolayer to ensure no damage was inflicted to the cell monolayers during the flux period. All samples were assayed by LC-MS/MS using electrospray ionisation. The apparent permeability (Papp) and percent recovery was determined using the following equation: […]
dCr/dt represents the slope of the cumulative receiver concentration versus time in μM/s; Vr is the volume of the receiver compartment (cm3); Vd is the volume of the donor compartment in (cm3); A is the area of the insert (1.13 cm2 for 12-well); C0 is the average measured concentration of the donor chamber at time zero in μM; Net Efflux ratio (ER) is defined as […].

HTT pre-mRNA = assay: Ampliseq/RNAseq analysis of intron 49 pseudoexon inclusion and HTT expression in different cell types; assay type: cell-based, human
[1] = Unbound brain partition coefficient (Kp,uu) from mouse PK studies; assay type: in vivo; conditions: FVB (WT littermates of the BACHD colony), brain and plasma (unbound), oral, 10 mg/kg, average over animals of multiple mouse PK studies
Description: Oral pharmacokinetics (PK) of compounds was evaluated in WT littermates from the BACHD colony (FVB background). Mice were treated with test compounds (10 mg/kg) by oral gavage in 0.5% hydroxypropylmethyl cellulose (HPMC) with 0.1% Tween 80. Blood was collected by terminal cardiac puncture at specified time points (3 mice per time point) and centrifuged to generate plasma. Brain tissue was collected at the time of blood collection and homogenized in water. Protein was precipitated from plasma and brain homogenates with acetonitrile, methanol mixture (5:1, v:v) containing an internal standard that is a close analog of the test compounds. The mixture was filtered through an EMD Millipore MultiScreen™ Solvinert Filter Plate (MSRLN04, Millipore, Burlington, Mass.). Calibration standards were prepared in the same matrix and processed with the testing samples. Filtrates were analysed using Acquity ultra performance liquid chromatography (UPLC) system (Waters Corporation) tandem with Xevo TQ-s Spectrometer (Waters Corporation). Samples were injected on to a Waters UPLC Acquity BEH C18 Column (2.1*50 mm, 1.7 μm) maintained at 50° C. The injection volume was 3 μL and the mobile phase flow rate was 0.45 mL/min. The mobile phase consisted of 2 solvents: A) 0.1% formic acid in water and B) 0.1% formic acid in acetonitrile. The initial mobile phase started with 5% solvent B for 0.4 min, which was changed to […] over 0.8 min with linear gradients and then maintained at 95% solvent B for another 0.4 min. The drug concentrations were acquired and processed with MassLynx 4.1 software. PK parameters were estimated using the non-compartment method within Phoenix® WinNonlin® Build 8.1 (Certara USA, Inc., Princeton, N.J.).
The unbound brain partition coefficient (Kp,uu) is defined as the ratio between unbound brain free drug concentration and unbound plasma concentration. It was calculated using the following equation:
Kp,uu=Cbrain×fu,b/(Cplasma*fu,p)
Cbrain and Cplasma represent the compound concentrations in brain and plasma, respectively. fu,b and fu,p are the unbound fraction of each testing article in brain and plasma, respectively. Both fu,b and fu,p were determined in vitro using Pierce Rapid Equilibrium Dialysis (RED) device at Absorption System LLC (Exton, Pa.). Kp,uu was calculated individually for each animal from multiple mouse PK studies and the average values are reported here.

T1 sequence (P08183 whole entry): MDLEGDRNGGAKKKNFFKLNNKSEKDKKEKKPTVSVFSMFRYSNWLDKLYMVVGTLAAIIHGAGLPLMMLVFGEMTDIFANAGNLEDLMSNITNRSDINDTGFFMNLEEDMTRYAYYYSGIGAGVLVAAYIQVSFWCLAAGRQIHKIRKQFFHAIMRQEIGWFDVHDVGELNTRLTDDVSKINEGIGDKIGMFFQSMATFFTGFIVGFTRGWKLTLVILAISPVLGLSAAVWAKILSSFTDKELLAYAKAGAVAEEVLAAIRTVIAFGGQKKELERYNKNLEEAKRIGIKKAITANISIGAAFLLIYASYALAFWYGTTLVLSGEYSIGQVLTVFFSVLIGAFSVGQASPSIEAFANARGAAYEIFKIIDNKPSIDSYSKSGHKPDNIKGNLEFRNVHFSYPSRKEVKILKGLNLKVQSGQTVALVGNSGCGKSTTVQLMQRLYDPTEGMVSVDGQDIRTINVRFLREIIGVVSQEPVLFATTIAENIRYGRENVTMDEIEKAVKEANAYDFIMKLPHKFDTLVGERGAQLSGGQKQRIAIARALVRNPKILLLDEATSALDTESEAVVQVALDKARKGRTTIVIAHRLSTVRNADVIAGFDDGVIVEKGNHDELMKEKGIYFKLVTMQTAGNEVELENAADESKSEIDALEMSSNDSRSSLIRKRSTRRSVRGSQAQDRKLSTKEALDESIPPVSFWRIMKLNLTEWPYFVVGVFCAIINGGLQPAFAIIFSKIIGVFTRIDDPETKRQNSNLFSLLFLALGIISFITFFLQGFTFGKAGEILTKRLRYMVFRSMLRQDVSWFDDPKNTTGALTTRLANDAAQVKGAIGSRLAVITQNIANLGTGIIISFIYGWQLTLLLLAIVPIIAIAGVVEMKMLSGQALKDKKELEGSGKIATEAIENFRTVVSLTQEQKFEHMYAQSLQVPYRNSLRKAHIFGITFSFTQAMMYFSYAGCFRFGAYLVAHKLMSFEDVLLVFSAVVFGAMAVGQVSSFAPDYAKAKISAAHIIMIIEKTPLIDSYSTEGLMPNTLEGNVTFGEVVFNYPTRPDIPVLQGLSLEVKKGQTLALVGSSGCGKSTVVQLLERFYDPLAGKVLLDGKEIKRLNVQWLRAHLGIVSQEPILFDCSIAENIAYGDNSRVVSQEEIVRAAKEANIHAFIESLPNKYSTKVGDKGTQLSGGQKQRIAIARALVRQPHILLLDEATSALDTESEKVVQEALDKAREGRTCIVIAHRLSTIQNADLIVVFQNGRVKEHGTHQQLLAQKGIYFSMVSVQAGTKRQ

SMILES | HTT protein level (HTT protein) | NET MDR1 ER (MDR1) | HTT gene expression quantified using RNAseq (FPKM) (HTT pre-mRNA; 100 nM, SHSY5Y cells (HTT-C2), TK6 cells (HTT-C3)) | inclusion of intron 49 pseudoexon (HTT pre-mRNA; HD fibroblasts, SH-SY5Y, TK6, MRC-5 cells) | Kp uu [1]
CC(C)c1cc(-c2n[nH]cc2-c2ccc3c(c2)OCO3)c(O)cc1O [HTT-A] | lower HTT protein levels | – | – | – | –
Cn1c(/C=C/c2ccc(Cl)cc2)c([N+](=O)[O-])c(=O)n(C)c1=O [HTT-B] | lower HTT protein levels | – | – | – | –
CC1(C)CC(n2nnc3cc(-c4ccc(-n5nccn5)cc4O)nnc32)CC(C)(C)N1 [HTT-C3] | – | 2.0 | reduced HTT gene expression | induced the inclusion of an Intron 49 pseudoexon | 0.848

— patent US20220162610A1, “NOVEL RNA TRANSCRIPT” (PTC Therapeutics, Inc., priority 2020, published 2022)
